# Test results published in patent US11149068B2, “Pore-forming peptides and uses thereof” (The Administrators of the Tulane Educational Fund, priority 2018, dated 2021).
# Ends that are not written are not given here.
# Columns and labels:
# [1] = Macromolecular leakage assay (release of 40 kDa TAMRA-biotin-dextran from lipid vesicles); format: biochemical; settings: for dextran release at pH 7: peptide to lipid ratios as high as 1:50
# Experimental: (§1) Large unilamellar vesicles for leakage assays were prepared as previously described (37) in 100 mM potassium chloride, with 10 mM sodium phosphate or 10 mM sodium acetate buffer. For small molecule leakage, lipids, dried from chloroform, were resuspended in buffer made of: 12.5 mM ANTS, 45 mM DPX, 5 mM HEPES, and 20 mM sodium chloride. For macromolecular leakage assays, lipids were resuspended in buffer with 1 mg/ml TAMRA-biotin-dextran (TBD). Lipid suspensions were frozen and thawed ten times and then extruded 10 times using a 0.1 um pore size Nuclepore polycarbonate filter (38). After extrusion, external ANTS and DPX were removed by gel filtration with Sephadex G100. External TBD was removed using streptavidin agarose resin.
# As described previously (33), 40 nM Alexafluor488-labelled streptavidin (SA) was added to a solution of vesicles with entrapped TBD. This solution was added to wells of a 96-well plate containing peptide, and the plate was incubated for 60 min. Release of the 40 kDa dextran enables TBD-SA complex formation, which leads to quenching of the AF488 fluorescence (excitation 495 nm, emission at 519 nm) by TAMRA. The fraction of macromolecule leakage was determined by Equation 2:
# [formula] where I is the intensity at 60 min, Ibackground is the intensity of a vesicle control with no peptide, and Itriton is the intensity in the presence of vesicles and 0.1% v/v of the detergent Triton X-100, added to solubilize the vesicles and release the ANTS.
# Step 4: Next, to the same wells, a different preparation of vesicles was added. These vesicles have entrapped 40 kDa TBD and external Alexafluor488 streptavidin. The TBD vesicles were in sodium acetate buffer at pH 4 so that the final pH in each well was 5.0. This second addition of vesicles increased the total volume to 200 μl which decreased peptide to 2.5 μM and decreased ANTS vesicle concentration to 0.5 mM. The new TBD vesicles were present at 1.5 mM so that the total peptide to total lipid ratio was roughly about 1:800.
# Step 5: After 60 minutes, the intensity of the AF488-streptavidin was measured to quantitate macromolecule release, which is calculated with equation 2. This orthogonal and sequential screen gives two measurements that are used to identify peptides with the desired properties: i) Small molecule release at pH 7 and P:L=1:200; ii) Macromolecule release at pH 5 and P:L=1:800.
# Verification of positive peptides. Since the selected peptides are very similar to each other, a subset of them were synthesized and purified for detailed validation. Tested peptides included four representative sequences with five acidic residues, pHD24, pHD34, pHD108 and pHD118 as well as pHD15, one of the two with six acidic residues. Because there is interest in pH-triggered macromolecule release at low pH, the positive peptides were validated with the macromolecular release assay using 40 kDa dextran and 53 kD streptavidin, described above. Dextran leakage was measured as functions of peptide concentration and pH using vesicles made from phosphatidylcholine lipids.
# [2] = Small molecule leakage assay (ANTS/DPX release from lipid vesicles); format: biochemical; settings: screen conditions
# Experimental: as §1, with “External TBD was removed using streptavidin agarose resin.” left out
# Lipid vesicles with entrapped ANTS and DPX were diluted into wells of a 96 well plate containing peptide. After 30 minutes, vesicle permeabilization was measured by an increase in ANTS fluorescence, with excitation at 350 nm and emission at 519 nm. Fractional leakage was quantified using Equation 1: […]
# Step 2: Aliquots of peptides in water from the plate in Step 1 were added to wells of a second plate, followed by addition of 1 mM lipid vesicles in 100 μl of sodium phosphate buffer at pH 7. […] Leakage, if it occurs, causes an increase in fluorescence of ANTS. […]
# Step 3: After 30 minutes of incubation, ANTS fluorescence was measured for each well to quantitate small molecule release using equation 1.
# [3] = Circular dichroism spectroscopy of peptide secondary structure in the presence of vesicles versus pH; format: physicochemical; settings: P:L=1:200
# Experimental: FIGS. 5A-5B are graphs depicting example binding and folding data. FIG. 5A: Circular dichroism spectra of pHD108 (SEQ ID NO: 9) versus pH at P:L=1:200 in 1 mM POPC vesicles. Separate samples are made at each pH and equilibrated for 30 minutes prior to the measurement. The spectra show a structural transition from random coil at pH 7 to classical α-helix at pH<5.75. FIG. 5B: Tryptophan fluorescence spectra of pHD108 at P:L=1:200 in 1 mM POPC vesicles. Separate samples are made at each pH and equilibrated for 30 minutes prior to the measurement. The spectra show a transition from a more polar, water-exposed environment to a less polar or buried environment consistent with peptide partitioning into bilayers.
# Peptide secondary structure in the presence of vesicles as a function of pH was studied by circular dichroism spectroscopy. Example CD spectra for pHD108 at P:L=1:200 are seen in FIG. 5A and show a pH-triggered transition from random coil to α-helical structure with an effective pKa around 5.5. Circular dichroism was measured in a JASCO 810 spectropolarimeter. Samples in buffers of various pH were prepared by mixing peptide and vesicle solutions, each prepared at the needed pH. Spectra were collected on samples of 2 mM vesicles and 10 μM peptide in 1 mm path rectangular quartz cuvette after 1 hour of equilibration.
# [4] = tested on: Chinese Hamster Ovary cells; experiment: Cell viability, Alamar Blue assay; format: cell-based; settings: ten minutes with peptide at pH 5 or pH 7, overnight recovery; except at the highest concentration
# Experimental: FIGS. 7A-7B are graphs showing the effect of peptides on the viability Chinese Hamster Ovary cells incubated with either the lytic peptide MelP5, or the pH-triggerred membrane permeabilizing peptide pHD108. Cells were grown to 50% confluency, and then treated for ten minutes with peptide in cell culture media at pH 5 (FIG. 7A) or at pH 7 (FIG. 7B). Full media with growth factors was added and the cells recovered overnight. Viability was assessed with the Alamar Blue assay. The values were normalized to cells treated with media only (negative control) and media only, no cells (positive control).
substance,measurement,setting,value
"GIGAVLKVLATGLPALISWIKAAQQL [MelP5, synthetically evolved gain-of-function variant of melittin, non pH-sensitive macromolecular pore-former]",macromolecule release,"[1]; screen conditions, 1 nmol, all pH values",partial
same,release of macromolecule probe (TBD),"[1]; screen conditions, 4 nmol (P:L=1:100)",essentially complete release
same,release of small molecule probe (ANTS),[2]; 4 nmol,essentially complete release
GIGDVLHELAADLPELQEWIHAAQQL [pHD24],dextran release at pH 7,[1],no activity
GIGEVLHELADDLPDLQEWIHAAQQL [pHD15],apparent pKa of macromolecule leakage (curve midpoints),"[1]; P:L=1:200, 1 mM POPC vesicles, 40 kDa dextran",lowest apparent pKa value
same,dextran release at pH 7,[1],no activity
GIGEVLHELAEGLPELQEWIHAAQQL [pHD108],effective pKa of transition from random coil to α-helical structure,[3],around 5.5
same,toxicity to mammalian cells,[4],did not exhibit toxicity
Triton X-100,release of macromolecule probe (TBD),"[1]; screen conditions, 0.1% v/v",essentially complete release
same,release of small molecule probe (ANTS),[2]; 0.1% v/v,essentially complete release
